According to the supplement of paper PMC10307832:

Experiments:
Test in all cases: relative viability (nuclei count vs DMSO), 5 days (fraction); higher = more cells survive
CUDC-101 + Phenformin = compound: C#Cc1cccc(Nc2ncnc3cc(OC)c(OCCCCCCC(=O)NO)cc23)c1 [CUDC-101] + N=C(N)NC(=N)NCCc1ccccc1 [Phenformin] (partner 250 µM)
Outline: (§1)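 Nuclei were stained with Hoechst during a one-step fixation (final 0.05% Triton X-100, 1% formaldehyde, 1 ug/ml Hoechst) carried out 5 days after dosing, then counted on 4× images. The cells, lung cancer lines in 1536-well plates, had been dosed by pin tool the day after seeding with one drug alone or a fixed anchor-drug dose plus five library-drug doses (not always all listed) in √10 steps. Relative viability is the nuclei count in treated wells divided by that in vehicle wells, and each value is the median of duplicate plates.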

Vandetanib + Vorinostat = compound: COc1cc2/c(=N/c3ccc(Br)cc3F)nc[nH]c2cc1OCC1CCN(C)CC1 [Vandetanib] + O=C(CCCCCCC(=O)Nc1ccccc1)NO [Vorinostat] (partner 1 µM)
Outline: as §1

CUDC-101 + Lapatinib = compound: C#Cc1cccc(Nc2ncnc3cc(OC)c(OCCCCCCC(=O)NO)cc23)c1 [CUDC-101] + CS(=O)(=O)CCNCc1ccc(-c2ccc3ncnc(Nc4ccc(OCc5cccc(F)c5)c(Cl)c4)c3c2)o1 [Lapatinib] (partner 2 µM)
Outline: as §1

CUDC-101 + Linsitinib = compound: C#Cc1cccc(Nc2ncnc3cc(OC)c(OCCCCCCC(=O)NO)cc23)c1 [CUDC-101] + C[C@]1(O)C[C@@H](c2nc(-c3ccc4ccc(-c5ccccc5)nc4c3)c3c(N)nccn32)C1 [Linsitinib] (partner 1 µM)
Outline: as §1

Cell Line	relative viability (CUDC-101 + Phenformin; first compound 0.01 µM)	relative viability (CUDC-101 + Phenformin; first compound 0.03162 µM)	relative viability (CUDC-101 + Phenformin; first compound 0.1 µM)	relative viability (CUDC-101 + Phenformin; first compound 0.3162 µM)	relative viability (CUDC-101 + Phenformin; first compound 1 µM)	relative viability (Vandetanib + Vorinostat; first compound 0.02 µM)	relative viability (Vandetanib + Vorinostat; first compound 0.06325 µM)	relative viability (Vandetanib + Vorinostat; first compound 0.2 µM)	relative viability (Vandetanib + Vorinostat; first compound 0.6325 µM)	relative viability (Vandetanib + Vorinostat; first compound 2 µM)	relative viability (CUDC-101 + Lapatinib; first compound 0.01 µM)	relative viability (CUDC-101 + Lapatinib; first compound 0.03162 µM)	relative viability (CUDC-101 + Lapatinib; first compound 0.1 µM)	relative viability (CUDC-101 + Lapatinib; first compound 0.3162 µM)	relative viability (CUDC-101 + Lapatinib; first compound 1 µM)	relative viability (CUDC-101 + Linsitinib; first compound 0.01 µM)	relative viability (CUDC-101 + Linsitinib; first compound 0.03162 µM)	relative viability (CUDC-101 + Linsitinib; first compound 0.1 µM)	relative viability (CUDC-101 + Linsitinib; first compound 0.3162 µM)	relative viability (CUDC-101 + Linsitinib; first compound 1 µM)
NCI-H522	0.677	0.688	0.777	0.744	0.572	0.947	0.962	0.85	0.874	0.936										
RERF-LC-KJ	0.419	0.441	0.418	0.387	0.387	0.689	0.607	0.724	0.608	0.536	0.893	0.905	0.841	0.826	0.698	0.965	1.01	0.839	0.849	0.694
A-427	0.328	0.347	0.464	0.502	0.389	0.809	0.85	0.903	0.842	0.911	0.933	1.04	1	0.914	1.01	1.09	1.05	1.05	1.11	1.05
EKVX	0.255	0.229	0.211	0.244	0.222	0.727	0.697	0.732	0.776	0.382	0.255	0.199	0.22	0.203	0.169	1.17	0.84	0.938	1.07	0.709
NCI-H460	0.528	0.501	0.554	0.526	0.486	0.632	0.674	0.685	0.654	0.674	1.04	0.994	0.873	0.919	0.339	0.928	0.648	0.901	0.757	0.595
HARA	0.4	0.397	0.476	0.501	0.248	0.496	0.477	0.521	0.616	0.524	0.739	0.789	0.739	0.71	0.453	1.01	0.804	0.908	0.512	0.349
NCI-H1944	0.218	0.192	0.181	0.193	0.151	0.51	0.542	0.526	0.476	0.602	0.777	0.747	0.799	0.709	0.5	1.27	0.898	1.14	1.05	0.849
BEN	0.29	0.259	0.239	0.256	0.209	0.6	0.56	0.613	0.552	0.569	0.925	0.628	0.707	0.739	0.539	1.04	0.719	1.12	0.824	0.628
PC-14	0.854	0.476	0.22	0.193	0.0975	0.774	0.619	0.493	0.107	0.0824	0.328	0.282	0.315	0.321	0.171	0.986	0.782	1.01	0.683	0.137
NCI-H322M	0.786	0.69	0.64	0.586	0.438	0.867	0.853	0.874	0.761	0.583	0.618	0.648	0.521	0.575	0.603	0.882	0.76	0.741	0.803	0.737
NCI-H1651	0.34	0.352	0.371	0.415	0.432	0.53	0.618	0.62	0.535	0.593	0.869	0.813	0.884	0.771	0.325	1.14	0.866	0.996	1.04	0.912
LCLC-97TM1	0.426	0.381	0.436	0.471	0.362	0.711	0.755	0.719	0.559	0.755	0.905	0.766	1.13	1.01	0.807	0.211	0.158	0.201	0.166	0.151
NCI-H727	0.591	0.476	0.297	0.604	0.362	1.11	1.18	1.13	1.26	0.992	0.825	0.531	0.844	0.801	0.678	0.204	0.207	0.308	0.396	0.242
NCI-H1623	0.565	0.597	0.539	0.631	0.457															
NCI-H1666	0.601	0.535	0.574	0.575	0.552	1.06	0.968	1.09	0.964	0.993	0.64	0.692	0.583	0.664	0.38	0.747	0.741	0.759	0.84	0.519
IA-LM						1.06	0.969	0.935	1.06	0.874	0.999	0.666	0.605	0.653	0.305	0.676	0.665	0.365	0.544	0.548
NCI-H1792	0.323	0.332		0.145	0.277						0.91	0.883	0.877	0.913	0.825	0.558	0.407	0.54	0.547	0.454
NCI-H1299											0.97	0.917	0.883	0.973	0.857	0.905	0.99	0.936	0.994	0.973
HCC-366	0.604	0.555	0.704	0.667	0.64	0.277	0.326	0.278	0.31	0.438	1.07	1.06	1.07	0.755	0.459	0.658	0.344	0.741	0.607	0.528
NCI-H1437	0.313	0.341	0.275	0.275	0.392	0.824	0.819	0.866	0.937	0.995	0.884	0.792	0.773	0.796	0.355	1.16	0.842	0.957	0.983	0.4

Cell Line	relative viability (CUDC-101 + Phenformin; first compound 0.01 µM)	relative viability (CUDC-101 + Phenformin; first compound 0.03162 µM)	relative viability (CUDC-101 + Phenformin; first compound 0.1 µM)	relative viability (CUDC-101 + Phenformin; first compound 0.3162 µM)	relative viability (CUDC-101 + Phenformin; first compound 1 µM)	relative viability (Vandetanib + Vorinostat; first compound 0.02 µM)	relative viability (Vandetanib + Vorinostat; first compound 0.06325 µM)	relative viability (Vandetanib + Vorinostat; first compound 0.2 µM)	relative viability (Vandetanib + Vorinostat; first compound 0.6325 µM)	relative viability (Vandetanib + Vorinostat; first compound 2 µM)	relative viability (CUDC-101 + Lapatinib; first compound 0.01 µM)	relative viability (CUDC-101 + Lapatinib; first compound 0.03162 µM)	relative viability (CUDC-101 + Lapatinib; first compound 0.1 µM)	relative viability (CUDC-101 + Lapatinib; first compound 0.3162 µM)	relative viability (CUDC-101 + Lapatinib; first compound 1 µM)	relative viability (CUDC-101 + Linsitinib; first compound 0.01 µM)	relative viability (CUDC-101 + Linsitinib; first compound 0.03162 µM)	relative viability (CUDC-101 + Linsitinib; first compound 0.1 µM)	relative viability (CUDC-101 + Linsitinib; first compound 0.3162 µM)	relative viability (CUDC-101 + Linsitinib; first compound 1 µM)
EPLC-272H	0.279	0.297	0.201	0.136	0.114	0.41	0.466	0.447	0.441	0.447	1.13	0.987	1	0.392	0.482	1.25	1.1	1.16	1.05	1.08
NCI-H1703											1.31	1.03	1.07	1.18	0.765		0.559	0.636	1.15	0.745
HCC-15	0.434	0.432	0.521	0.556	0.376	0.832	0.796	0.782	0.89	0.816	0.857	0.908	0.831	0.845	0.698	0.786	0.853	0.857	0.954	0.743
NCI-H2347	0.446	0.299	0.308	0.512	0.371	0.643	0.387	0.575	0.678	0.574	1.08	0.918	1.03	1.05	0.91	1.09	0.91	0.963	1.05	0.98
COR-L 105	0.627	0.481	0.447	0.528	0.198	0.922	0.807	0.829	0.822	0.537	0.425	0.356	0.316	0.264	0.226	1.08	0.934	0.921	0.874	0.396
NCI-H1650	0.405	0.313	0.36	0.452	0.188	0.525	0.502	0.599	0.544	0.452	0.833	0.72	0.963	0.772	0.48					
NCI-H838	0.64	0.564	0.696	0.712	0.404	0.731	0.679	0.772	0.78	0.68	0.934	1	1.03	1.11	0.552	1.08	0.85	1.08	1.06	0.898
NCI-H2009	0.511	0.496	0.534	0.499	0.404	0.724	0.638	0.727	0.783	0.756	0.924	1	1.07	0.925	0.87	1.21	1.14	1.19	1.2	1.17
Calu-6											1.08	1.12	1.09	0.791	0.658	0.989	0.897	1.04	1.01	0.869
NCI-H2170	0.407	0.377	0.459	0.439	0.375	0.84	0.829	0.816	0.767	0.813	0.27	0.266	0.297	0.227	0.232					
ChaGo-K-1	0.467	0.542	0.508	0.558	0.41	0.735	0.765	0.767	0.797	0.798										
NCI-H2342	0.619	0.621	0.667	0.643	0.43	0.754	0.674	0.785	0.739	0.645										
LCLC-103H	0.384	0.367	0.36	0.357	0.31	0.756	0.759	0.822	0.755	0.814						1.12	1.11	1.11	1.11	1.15
NCI-H1563	0.664	0.643	0.745	0.613	0.659						0.846	0.814	1.17	1.13	0.877	1.22	1.06	1.4	1.18	1.11
EBC-1											0.224	0.212	0.214	0.215	0.196	0.954	0.904	0.766	0.762	0.623
SW 900	0.666	0.538	0.687	0.499	0.643	0.692	0.528		0.425	0.429										
NCI-H441	0.88	0.486	0.764	0.917	0.776	0.781	0.702	0.8	0.767	0.821						0.748	0.662	0.579	0.779	0.358
A549	0.172	0.192	0.143	0.158	0.141						0.975	1.01	0.946	0.821	0.386	0.634	0.444	0.537	0.731	0.487
NCI-H1648						0.473	0.506	0.596	0.375	0.627										
